Measured values published in ChEMBL document CHEMBL3813628, “Molecular similarity guided optimization of novel Nrf2 activators with 1,2,4-oxadiazole core” (Bioorg Med Chem, 2016).
Active and inactive are the calls of the source. No cut-off for these calls is given here.

Assays:
[1] = biological target: T1, Nuclear factor erythroid 2-related factor 2 (Homo sapiens) (UniProt Q16236); assay: Activation of Nrf2 in human HepG2 cells at 20 uM incubated for 12 hrs by ARE-driven luciferase reporter gene assay relative to control; assay type: cell-based
T1 sequence (whole entry): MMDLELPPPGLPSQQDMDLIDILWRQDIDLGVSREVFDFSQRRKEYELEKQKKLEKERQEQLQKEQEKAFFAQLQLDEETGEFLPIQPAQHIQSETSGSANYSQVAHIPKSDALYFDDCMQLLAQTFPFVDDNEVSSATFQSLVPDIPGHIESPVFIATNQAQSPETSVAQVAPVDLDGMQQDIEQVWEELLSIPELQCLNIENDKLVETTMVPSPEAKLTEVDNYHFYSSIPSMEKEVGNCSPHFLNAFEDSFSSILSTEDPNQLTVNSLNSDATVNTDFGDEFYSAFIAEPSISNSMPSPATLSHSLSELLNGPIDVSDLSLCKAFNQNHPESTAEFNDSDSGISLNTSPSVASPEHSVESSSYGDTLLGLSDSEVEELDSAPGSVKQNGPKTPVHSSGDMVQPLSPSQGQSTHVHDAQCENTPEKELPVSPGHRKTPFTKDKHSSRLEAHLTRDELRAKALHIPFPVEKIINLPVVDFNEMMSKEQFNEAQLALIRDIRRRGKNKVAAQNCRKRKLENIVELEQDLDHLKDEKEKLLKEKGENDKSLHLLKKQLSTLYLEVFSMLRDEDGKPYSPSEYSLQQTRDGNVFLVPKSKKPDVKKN

[2] = biological target: T1, Nuclear factor erythroid 2-related factor 2 (Homo sapiens); assay: Activation of Nrf2 in human HepG2 cells at 5 uM incubated for 12 hrs by ARE-driven luciferase reporter gene assay relative to control; assay type: cell-based
[3] = biological target: T1, Nuclear factor erythroid 2-related factor 2 (Homo sapiens); assay: Activation of Nrf2 in human HepG2 cells at 2 uM incubated for 12 hrs by ARE-driven luciferase reporter gene assay relative to control; assay type: cell-based
[4] = biological target: T1, Nuclear factor erythroid 2-related factor 2 (Homo sapiens); assay: Activation of Nrf2 in human HepG2 cells at 80 uM incubated for 12 hrs by ARE-driven luciferase reporter gene assay relative to control; assay type: cell-based
[5] = biological target: T1, Nuclear factor erythroid 2-related factor 2 (Homo sapiens); assay: Activation of Nrf2 in human HepG2 cells at 0.2 uM incubated for 12 hrs by ARE-driven luciferase reporter gene assay relative to control; assay type: cell-based
[6] = biological target: T1, Nuclear factor erythroid 2-related factor 2 (Homo sapiens); assay: Activation of Nrf2 in human HepG2 cells at 40 uM incubated for 12 hrs by ARE-driven luciferase reporter gene assay relative to control; assay type: cell-based
[7] = biological target: T1, Nuclear factor erythroid 2-related factor 2 (Homo sapiens); assay: Activation of Nrf2 in human HepG2 cells at 0.02 uM incubated for 12 hrs by ARE-driven luciferase reporter gene assay relative to control; assay type: cell-based
[8] = biological target: T1, Nuclear factor erythroid 2-related factor 2 (Homo sapiens); assay: Activation of Nrf2 in human HepG2 cells at 160 uM incubated for 12 hrs by ARE-driven luciferase reporter gene assay relative to control; assay type: cell-based
[9] = Cytotoxicity against human L02 cells assessed as cell viability at low to medium concentration after 24 hrs by MTT assay relative to control; assay type: cell-based; conditions: l02, 24 h
[10] = Cytotoxicity against rat PC12 cells assessed as cell viability at low to medium concentration after 24 hrs by MTT assay relative to control; assay type: cell-based; conditions: pc-12, 24 h
NCM460 = assay: Cytoprotective activity against H2O2-induced cytotoxicity in human NCM460 cells assessed as cell viability pretreated at 20 uM for 24 hrs followed by H2O2 challenge for 12 hrs by MTT assay (reference value: 50%); assay type: functional
[11] = Cytotoxicity against human NCM460 cells assessed as cell viability at low to medium concentration after 24 hrs by MTT assay relative to control; assay type: cell-based; conditions: ncm460, 24 h
L02 = assay: Cytoprotective activity against H2O2-induced cytotoxicity in human L02 cells assessed as cell viability pretreated at 20 uM for 24 hrs followed by H2O2 challenge for 12 hrs by MTT assay (reference value: 50%); assay type: functional
PC-12 = assay: Cytoprotective activity against H2O2-induced cytotoxicity in rat PC12 cells assessed as cell viability pretreated at 20 uM for 24 hrs followed by H2O2 challenge for 12 hrs by MTT assay (reference value: 50%); assay type: functional

Row | fold change (FC) [1] | fold change (FC) [2] | fold change (FC) [3] | fold change (FC) [4] | fold change (FC) [5] | fold change (FC) [6] | fold change (FC) [7] | fold change (FC) [8] | Structure (SMILES) | Activity [9] | Activity [10] | Activity (NCM460) | Activity [11] | Activity (L02) | Activity (PC-12)
1 | 2.6 | 4.76 |  |  |  |  |  |  | Cc1nc2cc(-c3noc(-c4cccc(C#N)c4)n3)ccc2o1 |  |  |  |  |  | 
2 | 5.38 | 1.94 | 3.64 | 3.08 | 3.53 | 8.89 | 2.59 | 3.06 | CN(C)c1cccc(-c2nc(-c3ccc4c(c3)[nH]c(=O)n4C3CCCC3)no2)c1 |  |  |  |  |  | 
3 | 3.08 | 1.09 |  |  |  |  |  |  | CCOc1ccc(-c2nc(-c3ccc(-c4csc(C)n4)cc3)no2)c(CC)c1 |  |  |  |  |  | 
4 | 6.64 | 4.64 | 4.64 | 9.84 | 3.41 | 6.38 | 3.08 | 10.5 | Clc1cc(-c2nc(-c3ccc4oc(-c5ccccc5)nc4c3)no2)ccn1 |  |  |  |  |  | 
5 | 3.2 | 1.73 |  |  |  |  |  |  | Cc1nc2cc(-c3noc(Cc4ccc(F)cc4)n3)ccc2o1 |  |  |  |  |  | 
6 | 5.19 | 3.19 |  |  |  |  |  |  | CC(C)n1c(=O)[nH]c2cc(-c3noc(/C=C/c4ccccc4)n3)ccc21 |  |  |  |  |  | 
7 |  |  | 1.24 | 5.2 | 1.25 | 2.14 | 1.18 | 8.46 | CC(C)(C)c1cc(O)ccc1O [E319] | Non-toxic | Non-toxic | Active | Non-toxic | Active | Active
8 | 7.08 | 3.29 |  |  |  |  |  |  | Cc1nc2cc(-c3noc(-c4cccnc4)n3)ccc2o1 |  |  |  |  |  | 
9 | 7.98 | 4.38 | 3.95 | 4.88 | 2.35 | 8.94 | 1.89 | 2.51 | Cc1nc2cc(-c3noc(-c4ccc5[nH]cnc5c4)n3)ccc2o1 |  |  |  |  |  | 

Row | Structure (SMILES) | fold change (FC) [1] | fold change (FC) [2] | fold change (FC) [3] | fold change (FC) [4] | fold change (FC) [5] | fold change (FC) [6] | fold change (FC) [7] | fold change (FC) [8] | Activity [9] | Activity [10] | Activity (NCM460) | Activity [11] | Activity (L02) | Activity (PC-12)
10 | CN(C)C=O [DIMETHYLFORMAMIDE] | 1.65 |  | 1.1 |  | 1 | 2.97 | 0.82 |  | Non-toxic | Non-toxic | Active | Non-toxic | Active | Active
